22 compounds from ChEMBL document CHEMBL1158365, “Alkyne chemistry in crop protection” (2009) can be followed below.

A word on the EC80: it is the concentration at which the effect reaches the 80% level. A lower EC80 goes with an effect from little substance.

Converted amounts (≈) assume the structure as drawn.

Common to all, as to assay type: functional
For one assay, the system named is Plasmopara viticola. As to the kind of experiment: Antioomycetic activity against Plasmopara viticola.
A further assay concerns Phytophthora infestans. As to the kind of experiment: Antioomycetic activity against Phytophthora infestans.
A further assay relates to Ipomoea purpurea. As to the kind of experiment: Herbicidal activity against Ipomoea purpurea.
A further assay concerns Abutilon theophrasti. Kind of assay: Herbicidal activity against Abutilon theophrasti.

With `C#CCOc1ccc(CCNC(=O)C(OCC#C)c2ccc(Cl)cc2)cc1OC` (centres undefined) [MANDIPROPAMID], the EC80 is 1.2 µg/mL (≈ 2.91 µM) in the assay with Plasmopara viticola and 0.1 µg/mL (≈ 0.243 µM) with Phytophthora infestans.

On to `C#CCOc1ccc(CCNC(=O)C(OC)c2ccc(Cl)cc2)cc1OC` (centres undefined), for which the results for the EC80 in the assay on Plasmopara viticola and with Phytophthora infestans were 3.5 µg/mL (≈ 9.02 µM) and 9.7 µg/mL (≈ 25 µM), respectively.

On to `C#CCOc1ccc(CCNC(=O)C(OCCF)c2ccc(Cl)cc2)cc1OC` (centres undefined), for which the values for the EC80 in the assay on Plasmopara viticola and with Phytophthora infestans were 8.9 µg/mL (≈ 21.2 µM) and 4.7 µg/mL (≈ 11.2 µM), respectively.

Regarding `COC(=O)Cn1c(=O)ccc2cc(F)c(-n3c(=O)cc(C(F)(F)F)n(C)c3=O)cc21`, the ED85 with Ipomoea purpurea worked out at 100 g/ha; in the assay with Abutilon theophrasti, 10 g/ha.

Turning to `C#CCOc1ccc(CCNC(=O)C(OCCC)c2ccc(Cl)cc2)cc1OC` (centres undefined), the EC80 came to 31 µg/mL (≈ 74.5 µM) in the assay on Plasmopara viticola and 5.4 µg/mL (≈ 13 µM) with Phytophthora infestans.

Consider `C#CCOc1ccc(CCNC(=O)C(OCC)c2ccc(Cl)cc2)cc1OC` (centres undefined), for which the EC80 in the assay on Plasmopara viticola is 2 µg/mL (≈ 4.98 µM); in the assay on Phytophthora infestans, 4.6 µg/mL (≈ 11.4 µM).

On to `Cn1c(C(F)(F)F)cc(=O)n(-c2cc3[nH]c(=O)ccc3cc2F)c1=O`, for which the ED85 in the assay on Ipomoea purpurea and with Abutilon theophrasti was 30 g/ha each time.

With `C#CCOc1ccc(CCNC(=O)C(OC(=O)OC)c2ccc(Cl)cc2)cc1OC` (centres undefined), the EC80 in the assay with Plasmopara viticola was found to be 110 µg/mL (≈ 254 µM); with Phytophthora infestans, 38.6 µg/mL (≈ 89.4 µM).

Take `C#CCOc1ccc(CCNC(=O)C(OC(C)C)c2ccc(Cl)cc2)cc1OC` (centres undefined): the EC80 with Plasmopara viticola amounted to 10.1 µg/mL (≈ 24.3 µM); with Phytophthora infestans, 3.1 µg/mL (≈ 7.45 µM).

Regarding `C#CCOc1ccc(CCNC(=O)C(OCC#CC)c2ccc(Cl)cc2)cc1OC` (centres undefined), the 80% effect concentration (EC80) in the assay on Plasmopara viticola stood at 14 µg/mL (≈ 32.9 µM); with Phytophthora infestans, 18.3 µg/mL (≈ 43 µM).

Consider `C#CCOc1ccc(CCNC(=O)C(OC(=O)CC)c2ccc(Cl)cc2)cc1OC` (centres undefined), for which the EC80 with Plasmopara viticola came to 2.8 µg/mL (≈ 6.51 µM); in the assay with Phytophthora infestans, 4.2 µg/mL (≈ 9.77 µM).

As for `CCCn1c(=O)ccc2cc(F)c(-n3c(=O)cc(C(F)(F)F)n(C)c3=O)cc21`, the ED85 was determined as 30 g/ha in the assay on Ipomoea purpurea and 10 g/ha with Abutilon theophrasti.

`CC(C)Cn1c(=O)ccc2cc(F)c(-n3c(=O)cc(C(F)(F)F)n(C)c3=O)cc21`: the ED85 in the assay with Ipomoea purpurea turned out to be 30 g/ha; in the assay on Abutilon theophrasti, 10 g/ha.

For `C#CCn1c(=O)ccc2cc(F)c(-n3c(=O)cc(C(F)(F)F)n(C)c3=O)cc21`, the ED85 with Ipomoea purpurea is 3 g/ha; with Abutilon theophrasti it was 1 g/ha.

Consider `C#CCOc1ccc(CCNC(=O)C(OC(=O)CC#N)c2ccc(Cl)cc2)cc1OC` (centres undefined), for which the EC80 worked out at 4.9 µg/mL (≈ 11.1 µM) with Plasmopara viticola and 3.1 µg/mL (≈ 7.03 µM) in the assay with Phytophthora infestans.

Consider `C#CCOc1ccc(CCNC(=O)C(OCC=C)c2ccc(Cl)cc2)cc1OC` (centres undefined), for which the results for the EC80 in the assay with Plasmopara viticola and in the assay on Phytophthora infestans were 18.6 µg/mL (≈ 44.9 µM) and 44.1 µg/mL (≈ 107 µM), respectively.

In the case of `Cn1c(C(F)(F)F)cc(=O)n(-c2cc3c(ccc(=O)n3C)cc2F)c1=O`, the ED85 in the assay with Ipomoea purpurea and with Abutilon theophrasti was 10 g/ha each time.

Consider `Cn1c(C(F)(F)F)cc(=O)n(-c2cc3c(ccc(=O)n3CC#N)cc2F)c1=O`, for which the values for the ED85 in the assay on Ipomoea purpurea and in the assay with Abutilon theophrasti were 30 g/ha and 10 g/ha, respectively.

For `C#CCOc1ccc(CCNC(=O)C(OC(C)(C)C#C)c2ccc(Cl)cc2)cc1OC` (centres undefined), the values for the EC80 in the assay on Plasmopara viticola and in the assay with Phytophthora infestans were 3.5 µg/mL (≈ 7.96 µM) and 4.9 µg/mL (≈ 11.1 µM), respectively.

On to `CCn1c(=O)ccc2cc(F)c(-n3c(=O)cc(C(F)(F)F)n(C)c3=O)cc21`, for which the figures for the ED85 with Ipomoea purpurea and in the assay with Abutilon theophrasti were 10 g/ha and 3 g/ha, respectively.

Consider `C=CCn1c(=O)ccc2cc(F)c(-n3c(=O)cc(C(F)(F)F)n(C)c3=O)cc21`, for which the ED85 in the assay with Ipomoea purpurea is listed as 3 g/ha; with Abutilon theophrasti, 1 g/ha.

For the compound `C#CCOc1ccc(CCNC(=O)C(O)c2ccc(Cl)cc2)cc1OC` (centres undefined), the EC80 was 10.4 µg/mL (≈ 27.8 µM) in the assay with Plasmopara viticola and 34.6 µg/mL (≈ 92.6 µM) in the assay with Phytophthora infestans.
